# Source: US8952024B2, “Herbicidal pyrimidone derivatives” (E I du Pont de Nemours and Company, priority 2009, dated 2015)
# Experiments:
# Assay in all cases: Test B pre-/postemergence plant response
# Type in all cases: in vivo
# [1] = system: large crabgrass (Digitaria sanguinalis); conditions: for Crabgrass, Large plant response rating (0 to 100 scale): postemergence, 0 is no effect, 100 is complete control; for Plant response rating, Crabgrass, Large: Postemergence
# Summary of the method: (§1)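 Steps: sow seed in loam–sand soil and spray preemergence, or grow plants in peat-based medium to 1–4 leaves (2–18 cm) and spray postemergence; formulation is non-phytotoxic solvent plus surfactant; hold in greenhouse 13–15 days; score visually vs controls, 0 = no effect, 100 = complete control.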
# [2] = system: wild oat (Avena fatua); conditions: for Oat, Wild plant response rating (0 to 100 scale): postemergence, 0 is no effect, 100 is complete control; for Plant response rating, Oat, Wild: Postemergence
# Summary of the method: as §1
# [3] = system: kochia (Kochia scoparia); conditions: for Kochia plant response rating (0 to 100 scale): postemergence, 0 is no effect, 100 is complete control; for Plant response rating, Kochia: Postemergence
# Summary of the method: as §1
# [4] = system: lambsquarters (Chenopodium album); conditions: for Lambsquarters plant response rating (0 to 100 scale): postemergence, 0 is no effect, 100 is complete control; for Plant response rating, Lambsquarters: Postemergence
# Summary of the method: as §1
# [5] = system: Surinam grass (Brachiaria decumbens); conditions: for Surinam Grass plant response rating (0 to 100 scale): postemergence, 0 is no effect, 100 is complete control; for Plant response rating, Surinam Grass: Postemergence
# Summary of the method: as §1
# [6] = system: cocklebur (Xanthium strumarium); conditions: for Cocklebur plant response rating (0 to 100 scale): postemergence, 0 is no effect, 100 is complete control; for Plant response rating, Cocklebur: Postemergence
# Summary of the method: as §1
# [7] = system: woolly cupgrass (Eriochloa villosa); conditions: for Cupgrass, Woolly plant response rating (0 to 100 scale): postemergence, 0 is no effect, 100 is complete control; for Plant response rating, Cupgrass, Woolly: Postemergence
# Summary of the method: as §1
# [8] = system: yellow nutsedge (Cyperus esculentus); conditions: for Nutsedge, Yellow plant response rating (0 to 100 scale): postemergence, 0 is no effect, 100 is complete control; for Plant response rating, Nutsedge, Yellow: Postemergence
# Summary of the method: as §1
# [9] = 31 g ai/ha, 0 to 100 scale (0 no effect, 100 complete control)
# [10] = 125 g ai/ha, scale 0 to 100 (0 no effect, 100 complete control)
# [11] = 250 g ai/ha, scale 0 to 100 (0 no effect, 100 complete control), 13 to 15 days
# [12] = 62 g ai/ha, scale 0 to 100 (0 no effect, 100 complete control)
SMILES,"Plant response rating, Crabgrass, Large [1, 9]","Plant response rating, Crabgrass, Large [1, 10]","Plant response rating, Crabgrass, Large [1, 11]","Plant response rating, Oat, Wild [2, 9]","Plant response rating, Oat, Wild [2, 11]","Plant response rating, Kochia [3, 9]","Plant response rating, Kochia [3, 10]","Plant response rating, Kochia [3, 11]","Plant response rating, Lambsquarters [4, 9]","Plant response rating, Lambsquarters [4, 10]","Plant response rating, Lambsquarters [4, 11]","Plant response rating, Surinam Grass [5, 9]","Plant response rating, Surinam Grass [5, 11]","Plant response rating, Cocklebur [6, 9]","Plant response rating, Cocklebur [6, 10]","Plant response rating, Cocklebur [6, 11]","Plant response rating, Cupgrass, Woolly [7, 9]","Plant response rating, Cupgrass, Woolly [7, 10]","Plant response rating, Cupgrass, Woolly [7, 11]","Plant response rating, Nutsedge, Yellow [8, 9]",other results
O=C1CCCC(O)=C1C(=O)c1cnc(-c2ccccc2)n(C2CCOCC2)c1=O [Compound 129],80,85,85,0,30,80,95,98,90,95,98,80,85,95,98,100,80,85,85,35,"Crabgrass, Large plant response rating (0 to 100 scale) ([1]; 62 g ai/ha, 13 to 15 days): 80; Oat, Wild plant response rating (0 to 100 scale) ([2]; 62 g ai/ha, 13 to 15 days): 5; Plant response rating, Oat, Wild [2, 10]: 20; Kochia plant response rating (0 to 100 scale) ([3]; 62 g ai/ha, 13 to 15 days): 95; Lambsquarters plant response rating (0 to 100 scale) ([4]; 62 g ai/ha, 13 to 15 days): 95; Surinam Grass plant response rating (0 to 100 scale) ([5]; 62 g ai/ha, 13 to 15 days): 85; Plant response rating, Surinam Grass [5, 10]: 85; Cocklebur plant response rating (0 to 100 scale) ([6]; 62 g ai/ha, 13 to 15 days): 98; Cupgrass, Woolly plant response rating (0 to 100 scale) ([7]; 62 g ai/ha, 13 to 15 days): 85; Nutsedge, Yellow plant response rating (0 to 100 scale) ([8]; 62 g ai/ha, 13 to 15 days): 35; Plant response rating, Nutsedge, Yellow [8, 10]: 60; Plant response rating, Nutsedge, Yellow [8, 11]: 85"
O=C1CCCC(O)=C1C(=O)c1cnc(-c2ccccc2)n(C2CCCCCC2)c1=O [Compound 130],85,95,100,20,60,85,100,100,98,100,100,80,90,85,95,100,80,85,90,10,"Crabgrass, Large plant response rating (0 to 100 scale) ([1]; 62 g ai/ha, 13 to 15 days): 85; Oat, Wild plant response rating (0 to 100 scale) ([2]; 62 g ai/ha, 13 to 15 days): 30; Plant response rating, Oat, Wild [2, 10]: 40; Kochia plant response rating (0 to 100 scale) ([3]; 62 g ai/ha, 13 to 15 days): 85; Lambsquarters plant response rating (0 to 100 scale) ([4]; 62 g ai/ha, 13 to 15 days): 100; Surinam Grass plant response rating (0 to 100 scale) ([5]; 62 g ai/ha, 13 to 15 days): 80; Plant response rating, Surinam Grass [5, 10]: 80; Cocklebur plant response rating (0 to 100 scale) ([6]; 62 g ai/ha, 13 to 15 days): 95; Cupgrass, Woolly plant response rating (0 to 100 scale) ([7]; 62 g ai/ha, 13 to 15 days): 85; Nutsedge, Yellow plant response rating (0 to 100 scale) ([8]; 62 g ai/ha, 13 to 15 days): 20; Plant response rating, Nutsedge, Yellow [8, 10]: 35; Plant response rating, Nutsedge, Yellow [8, 11]: 40"
O=C1CCCC(O)=C1C(=O)c1cnc(C2CC2)n(C2CCCCC2)c1=O [Compound 160],80,95,95,10,60,90,100,100,95,98,98,40,75,98,100,100,65,85,95,65,"Plant response rating, Oat, Wild [2, 10]: 50; Plant response rating, Surinam Grass [5, 10]: 60; Plant response rating, Nutsedge, Yellow [8, 10]: 80; Plant response rating, Nutsedge, Yellow [8, 11]: 80"
Cc1ccc(-n2c(-c3cc(F)cc(F)c3)ncc(C(=O)C3=C(O)CCCC3=O)c2=O)cc1 [Compound 162],80,98,98,35,55,20,75,80,80,98,100,65,85,100,100,100,90,100,100,25,"Plant response rating, Oat, Wild [2, 10]: 45; Plant response rating, Surinam Grass [5, 10]: 75; Plant response rating, Nutsedge, Yellow [8, 10]: 75; Plant response rating, Nutsedge, Yellow [8, 11]: 80"
CCCn1c(-c2ccccc2)ncc(C(=O)C2=C(O)C3CCC(C3)C2=O)c1=O (stereo not shown) [Compound 226],85,95,98,25,50,80,100,100,90,95,98,75,85,98,100,100,80,85,95,55,"Plant response rating, Crabgrass, Large [1, 12]: 85; Plant response rating, Oat, Wild [2, 12]: 30; Plant response rating, Kochia [3, 12]: 85; Plant response rating, Lambsquarters [4, 12]: 90; Plant response rating, Surinam Grass [5, 12]: 75; Plant response rating, Cocklebur [6, 12]: 98; Plant response rating, Cupgrass, Woolly [7, 12]: 80; Plant response rating, Nutsedge, Yellow [8, 10]: 70; Plant response rating, Nutsedge, Yellow [8, 11]: 75; Plant response rating, Nutsedge, Yellow [8, 12]: 65"
